Peptide text beside a SMILES is read from it.

For orientation: Kd means the constant that tells how readily two partners part at equilibrium.

Test [1] deals with T1, Human Activated Protein C (APC-1.0) (Homo sapiens, UniProt P04070).
T1 construct: purchased Enzyme Research Laboratories, Inc., South Bend, IN, USA APC-1.0
Kind of test: Bio-layer interferometry (BLI) binding. As to conditions: Octet R2, SA biosensors, biotinylated APC 10 µg/mL, GC38 3.125-50 μM, PBS with 0.02% Tween-20, association 300 s, dissociation 180 s, average of three, read-out: dissociation constant (KD). The text has this:
Human Activated Protein C (APC-1.0) was purchased from Enzyme Research Laboratories, Inc., South Bend, IN, USA. […] Activated Partial Thromboplastin Time (APTT) Test Kit (TC0306) was bought from Senkey Biotechnology Co., Ltd., Kunming, China. Prothrombin Time (PT) Test Kit (GMS10176) was purchased from GENMED Scientifics Inc., Shanghai, China. Streptavidin (SA) Biosensors (18-5019) were obtained from Sartorius AG, Göttingen, Lower Saxony, Germany. PBS (21-040-CVC) was bought from Corning Incorporated, Corning, NY, USA. Tween-20 (BS361B) was purchased from Biosharp Life Sciences, Hefei, Anhui, China. Trifluoroacetic acid (TFA, T818778-500ml, CAS: 76-05-1) and CaCl2 (C805225) were obtained from Macklin Biochemical Co., Ltd., Shanghai, China. L-oxidized glutathione (GSSG, V900363), Rose Bengal Dye (content 95%, CAS: 632-69-9, 330000-5G), and HEPES (V900477-500G) were purchased from Sigma-Aldrich LLC, St. Louis, MO, USA (Shanghai branch: Sigma-Aldrich Shanghai Trading Co., Ltd., Shanghai, China). […]
The binding affinity between APC and GC38 was measured using the Octet® R2 system (ForteBio, Fremont, CA, USA) with Streptavidin (SA) biosensors. […] Data were acquired and analyzed using Octet® Data Acquisition and Analysis software version 8.2. […]

In test [2] the test system is plasma clotting (coagulation pathway). Kind of test: Plasma recalcification time (PRT). The format is biochemical. As to conditions: fresh plasma, 10 min at 37 °C, n = 3. The method, then:
Plasma recalcification time (PRT) was used to evaluate the effects of GC38 on the coagulation pathway. Fresh plasma was incubated with GC38 (0.1, 1, and 10 µM) for 10 min at 37 °C. After incubation, the plasma was mixed with an equal volume of 25 mM calcium chloride solution, and the timer was immediately started. The time required for plasma clot formation was recorded. The group treated with PBS served as the control. Each concentration was tested in triplicate, and the average value and PRT at maximum reactive velocity were reported.

The test system of test [3] is human plasma, extrinsic clotting cascade. Kind of test: Prothrombin time (PT). The format is biochemical. To be noted: GC38 0.1-10 μM; human plasma 20 μL, pre-incubation 5 min at 37 °C, PT reagent; scattered light; n = 3. The method, then:
APTT and PT were measured with commercially available kits according to the manufacturer’s instructions. For APTT determination, 20 μL human plasma was pre-incubated with GC38 (0.1, 1, and 10 µM) at 37 °C for 5 min, and then 30 μL APTT reagent was added and incubated for another 5 min. Subsequently, 40 μL pre-warmed CaCl2 (37 °C) was added to initiate the intrinsic clotting cascade. The intensity of the scattered light was monitored until the signals reached saturation. For PT determination, 20 μL human plasma was pre-incubated with GC38 (0.1, 1, and 10 µM) at 37 °C for 5 min. Then, 75 μL PT reagent was added to initiate the extrinsic clotting cascade. The intensity of the scattered light was monitored until the signals reached saturation. The coagulation time (APTT or PT) was defined as the time point at which the scattered light signal reached the midpoint between the baseline and maximum amplitude. All concentrations were tested in triplicate. Results are shown as mean values, and the time at maximum reactive velocity was also reported.

For `CSCC[C@@H]1NC(=O)[C@H](CC(N)=O)NC(=O)CNC(=O)CNC(=O)[C@H](Cc2c[nH]cn2)NC(=O)[C@H](CCCNC(=N)N)NC(=O)CNC(=O)[C@@H]2CSSC[C@@H]3NC(=O)[C@H](CCCNC(=N)N)NC(=O)[C@H](C)NC(=O)CNC(=O)[C@H](CCCCN)NC(=O)CNC(=O)[C@H](CO)NC(=O)[C@@H](NC(=O)CN)CSSC[C@H](NC(=O)[C@H](CSSC[C@@H](C(=O)N[C@@H](CCC(=O)O)C(=O)N[C@@H](Cc4c[nH]c5ccccc45)C(=O)N[C@@H](CC(N)=O)C(=O)N[C@@H](Cc4c[nH]c5ccccc45)C(=O)N[C@@H](CCCCN)C(=O)N[C@H](C(=O)NCC(=O)O)[C@@H](C)O)NC(=O)[C@H](CO)NC(=O)[C@H](CCCCN)NC(=O)[C@H](Cc4ccc(O)cc4)NC1=O)NC(=O)[C@H](CCCCN)NC(=O)[C@H](CO)NC(=O)[C@@H]1CCCN1C(=O)[C@H](C)NC3=O)C(=O)N[C@@H](CO)C(=O)NCC(=O)N[C@@H](CC(C)C)C(=O)N[C@@H](CO)C(=O)N2` [GC38] (HELM PEPTIDE1{G.C.S.G.K.G.A.R.C.A.P.S.K.C.C.S.G.L.S.C.G.R.H.G.G.N.M.Y.K.S.C.E.W.N.W.K.T.G}$PEPTIDE1,PEPTIDE1,2:R3-15:R3|PEPTIDE1,PEPTIDE1,9:R3-20:R3|PEPTIDE1,PEPTIDE1,14:R3-31:R3$$$V2.0), the Kd in test [1] amounted to 6.16 µM. In test [2] (GC38 10 μM, then 25 mM CaCl2, mean), the “PRT clotting time versus negative control (time to Vmax)” value is 1.4 fold. Besides, the “clotting time in plasma (PRT), dose response” value in test [2] (GC38 0.1-10 μM, then equal volume 25 mM CaCl2) is “prolonged clotting time in plasma in a dose-responsive manner”. The “prothrombin time (PT) effect” value in test [3] is given as “no apparent effects on prothrombin time (PT)”.

These data come from publication PMC12564639, “Discovery of a Novel Anticoagulant Cystine Knot Peptide from Spider Venom Gland Transcriptome” (International Journal of Molecular Sciences, 2025).
